Data as given in patent publication US12583826B2, “[(1,5-diphenyl-1H-1,2,4-triazol-3-yl)oxy]acetic acid derivatives and salts thereof, crop protection compositions comprising them, methods for producing them and use thereof as safeners” (Bayer Aktiengesellschaft, priority 2019, dated 2026).

Experiments:
[1] = system: summer wheat (TRZAS; cv. Triso); assay: Absolute action: reduction of damage by mesosulfuron-methyl on summer wheat, greenhouse post-emergence; format: in vivo; details: for Absolute reduction in herbicide damage (damage without safener minus damage with safener): mesosulfuron-methyl 20 g/ha; for Herbicide damage with compound of the formula (I): then mesosulfuron-methyl 20 g/ha, visual 0-100% scale, 14-21 days after application
Experimental: (§1) 2.1 Absolute Action of Selected Compounds of the Invention Using the Example of Reduction of Damage by Mesosulfuron-Methyl on Summer Wheat (TRZAS) The seeds of the crop plants to be treated are laid out in sandy loam in wood fiber or plastic pots (diameter ˜4 cm), covered with soil and grow in a greenhouse under good conditions for germination and growth. The trial plants were treated at the early leaf stage (BBCH10—BBCH12). In the course of this, the inventive compounds of the general formula (I) formulated in the form of wettable powders (WP) were sprayed onto the above-ground parts of the plants as an aqueous suspension with a water application rate corresponding to 800 l/ha with addition of wetting agent (e.g. 0.2% agrotin) in the specified dose. This was followed by the application of the herbicide. For this purpose, mesosulfuron-methyl, formulated in the form of water-dispersible granules (WG), was sprayed onto the above-ground parts of the plants in the form of an aqueous dispersion with a water application rate corresponding to 800 l/ha with addition of wetting agent (e.g. 0.2% agrotin) in a dose of 20 g/ha. The dose of the herbicide was chosen here such that it causes visually apparent damage (min. 30%, max. 75%) compared to untreated crop plants at the evaluation time on a control group of crop plants without safener treatment that were included in the same trial. After application, the plants were cultivated under good growth conditions in a greenhouse. The damage was visually assessed 14-21 days after application. The damage effect was assessed visually on a scale of 0-100% by comparison with untreated control plants, and averaged over 2-3 repeats per treatment. Examples: • 0%=no noticeable effect compared to the untreated plant • 20%=the treated plant population has 20% damage compared to the untreated control population (e.g. growth height, leaf damage, etc.) • 100%=treated plants completely damaged/killed.

[2] = system: summer barley (HORVS; cv. Montoya); assay: Absolute action: reduction of damage by mesosulfuron-methyl on summer barley, greenhouse post-emergence; format: in vivo; details: for Absolute reduction in damage (difference): mesosulfuron-methyl 20 g/ha, damage without minus with safener; for Herbicide damage with compound of the formula (I) (%): then mesosulfuron-methyl 20 g/ha, visual 0-100% scale, 14-21 days after application
Experimental: as §1, with “2.2 Absolute Action” for “2.1 Absolute Action”, “on Summer Barley (HORVS) The seeds” for “on Summer Wheat (TRZAS) The seeds”, “treated are aid out in” for “treated are laid out in”, “soil and grown in a” for “soil and grow in a”, “leaf stage (BBCE10-BBCH12). In the” for “leaf stage (BBCH10—BBCH12). In the”, “control population (e.g.: growth height,” for “control population (e.g. growth height,”

In the case of `COC(=O)COc1nc(-c2ccccc2F)n(-c2ccc(F)cc2F)n1` [I.4-38], the “Absolute reduction in herbicide damage (damage without safener minus damage with safener)” value ([1]; safener 125 g a.i./ha) is reported as 27%, the “Herbicide damage with compound of the formula (I)” value ([1]; safener 125 g a.i./ha) is reported as 30% and the “Absolute reduction in damage (difference)” value ([2]; safener 500 g a.i./ha) is reported as 50%. The “Herbicide damage with compound of the formula (I) (%)” value (“Herbicide damage with compound … (%)” for short) ([2]; safener 500 g a.i./ha) was 7%.
`COC(=O)COc1nc(-c2ccccc2F)n(-c2ccc(Cl)cc2F)n1` [I.4-49] was tested, and the “Absolute reduction in herbicide damage (damage without safener minus damage with safener)” value ([1]; safener 125 g a.i./ha) was 40%, the “Herbicide damage with compound of the formula (I)” value ([1]; safener 125 g a.i./ha) was 17% and the “Absolute reduction in damage (difference)” value ([2]; safener 125 g a.i./ha) was 44%. The “Herbicide damage with compound … (%)” value ([2]; safener 125 g a.i./ha) was 13%, the “Absolute reduction in damage (difference)” value ([2]; safener 500 g a.i./ha) was 47% and the “Herbicide damage with compound … (%)” value ([2]; safener 500 g a.i./ha) was 10%.
With `CCOC(=O)COc1nc(-c2ccccc2F)n(-c2ccc(Cl)cc2F)n1` [I.5-49] the “Absolute reduction in herbicide damage (damage without safener minus damage with safener)” value ([1]; safener 125 g a.i./ha) was 54%, the “Herbicide damage with compound of the formula (I)” value ([1]; safener 125 g a.i./ha) was 13% and the “Absolute reduction in damage (difference)” value ([2]; safener 125 g a.i./ha) was 50%. For the same compound, the “Herbicide damage with compound … (%)” value ([2]; safener 125 g a.i./ha) was 23%, the “Absolute reduction in damage (difference)” value ([2]; safener 500 g a.i./ha) was 56% and the “Herbicide damage with compound … (%)” value ([2]; safener 500 g a.i./ha) was 17%.
With `O=C(O)COc1nc(-c2ccccc2F)n(-c2ccc(F)cc2F)n1` [I.6-38] the “Absolute reduction in herbicide damage (damage without safener minus damage with safener)” value ([1]; safener 125 g a.i./ha) was 50%, the “Herbicide damage with compound of the formula (I)” value ([1]; safener 125 g a.i./ha) was 17% and the “Absolute reduction in damage (difference)” value ([2]; safener 125 g a.i./ha) was 53%. For the same compound, the “Herbicide damage with compound … (%)” value ([2]; safener 125 g a.i./ha) was 20%.
`O=C(O)COc1nc(-c2ccccc2F)n(-c2ccc(Cl)cc2F)n1` [I.6-49] was tested, and the “Absolute reduction in herbicide damage (damage without safener minus damage with safener)” value ([1]; safener 250 g/ha) was 30%, the “Herbicide damage with compound of the formula (I)” value ([1]; safener 250 g/ha) was 27% and the “Absolute reduction in damage (difference)” value ([2]; safener 250 g a.i./ha) was 20%. For the same compound, the “Herbicide damage with compound … (%)” value ([2]; safener 250 g a.i./ha) was 40%, the “Absolute reduction in damage (difference)” value ([2]; safener 1000 g a.i./ha) was 30% and the “Herbicide damage with compound … (%)” value ([2]; safener 1000 g a.i./ha) was 30%.
With `O=C(O)COc1nc(-c2ccc(F)cc2)n(-c2ccc(Cl)cc2)n1` [I.12-7] the “Absolute reduction in herbicide damage (damage without safener minus damage with safener)” value ([1]; safener 250 g/ha) was 23%, the “Herbicide damage with compound of the formula (I)” value ([1]; safener 250 g/ha) was 20% and the “Absolute reduction in damage (difference)” value ([2]; safener 1000 g a.i./ha) was 20%. For the same compound, the “Herbicide damage with compound … (%)” value ([2]; safener 1000 g a.i./ha) was 40%.
In the case of `O=C(O)COc1nc(-c2ccc(Cl)cc2)n(-c2ccc(F)cc2F)n1` [I.21-38], the “Absolute reduction in herbicide damage (damage without safener minus damage with safener)” value ([1]; safener 1000 g/ha) is reported as 23%, the “Herbicide damage with compound of the formula (I)” value ([1]; safener 1000 g/ha) is reported as 20% and the “Absolute reduction in damage (difference)” value ([2]; safener 250 g a.i./ha) is reported as 30%. For the same compound, the “Herbicide damage with compound … (%)” value ([2]; safener 250 g a.i./ha) was 30%, the “Absolute reduction in damage (difference)” value ([2]; safener 1000 g a.i./ha) was 40% and the “Herbicide damage with compound … (%)” value ([2]; safener 1000 g a.i./ha) was 20%.
In the case of `CCOC(=O)COc1nc(-c2ccc(F)cc2F)n(-c2ccc(Cl)cc2)n1` [I.41-7], the “Absolute reduction in herbicide damage (damage without safener minus damage with safener)” value ([1]; safener 250 g/ha) is reported as 23%, the “Herbicide damage with compound of the formula (I)” value ([1]; safener 250 g/ha) is reported as 20% and the “Absolute reduction in damage (difference)” value ([2]; safener 1000 g a.i./ha) is reported as 40%. The “Herbicide damage with compound … (%)” value ([2]; safener 1000 g a.i./ha) was 20%.
In the case of `O=C(O)COc1nc(-c2ccc(F)cc2F)n(-c2ccc(Cl)cc2)n1` [I.42-7, {[1-(4-Chlorophenyl)-5-(2,4-difluorophenyl)-1H-1,2,4-triazol-3-yl]oxy}acetic acid], the “Absolute reduction in herbicide damage (damage without safener minus damage with safener)” value ([1]; safener 250 g/ha) is reported as 43%, the “Herbicide damage with compound of the formula (I)” value ([1]; safener 250 g/ha) is reported as 0% and the “Absolute reduction in damage (difference)” value ([2]; safener 250 g a.i./ha) is reported as 60%. The “Herbicide damage with compound … (%)” value ([2]; safener 250 g a.i./ha) was 0%.
`COC(=O)COc1nc(-c2ccc(Cl)cc2Cl)n(-c2ccc(Cl)cc2Cl)n1` [I.43-32] was tested, and the “Absolute reduction in herbicide damage (damage without safener minus damage with safener)” value ([1]; safener 125 g a.i./ha) was 33%, the “Herbicide damage with compound of the formula (I)” value ([1]; safener 125 g a.i./ha) was 30% and the “Absolute reduction in herbicide damage (damage without safener minus damage with safener)” value ([1]; safener 500 g a.i./ha) was 43%. For the same compound, the “Herbicide damage with compound of the formula (I)” value ([1]; safener 500 g a.i./ha) was 20%, the “Absolute reduction in damage (difference)” value ([2]; safener 125 g a.i./ha) was 26% and the “Herbicide damage with compound … (%)” value ([2]; safener 125 g a.i./ha) was 37%. The “Absolute reduction in damage (difference)” value ([2]; safener 500 g a.i./ha) was 33% and the “Herbicide damage with compound … (%)” value ([2]; safener 500 g a.i./ha) was 30%.
`COC(=O)COc1nc(-c2ccc(Cl)cc2Cl)n(-c2ccc(F)cc2F)n1` [I.43-38] was tested, and the “Absolute reduction in herbicide damage (damage without safener minus damage with safener)” value ([1]; safener 125 g a.i./ha) was 30%, the “Herbicide damage with compound of the formula (I)” value ([1]; safener 125 g a.i./ha) was 33% and the “Absolute reduction in herbicide damage (damage without safener minus damage with safener)” value ([1]; safener 500 g a.i./ha) was 33%. For the same compound, the “Herbicide damage with compound of the formula (I)” value ([1]; safener 500 g a.i./ha) was 30%, the “Absolute reduction in damage (difference)” value ([2]; safener 125 g a.i./ha) was 26% and the “Herbicide damage with compound … (%)” value ([2]; safener 125 g a.i./ha) was 37%.
With `COC(=O)COc1nc(-c2ccc(Cl)cc2Cl)n(-c2ccc(Cl)cc2F)n1` [I.43-49, Methyl {[1-(4-chloro-2-fluorophenyl)-5-(2,4-dichlorophenyl)-1H-1,2,4-triazol-3-yl]oxy}acetate] the “Absolute reduction in herbicide damage (damage without safener minus damage with safener)” value ([1]; safener 125 g a.i./ha) was 36%, the “Herbicide damage with compound of the formula (I)” value ([1]; safener 125 g a.i./ha) was 27% and the “Absolute reduction in herbicide damage (damage without safener minus damage with safener)” value ([1]; safener 500 g a.i./ha) was 40%. For the same compound, the “Herbicide damage with compound of the formula (I)” value ([1]; safener 500 g a.i./ha) was 23%, the “Absolute reduction in damage (difference)” value ([2]; safener 125 g a.i./ha) was 30% and the “Herbicide damage with compound … (%)” value ([2]; safener 125 g a.i./ha) was 33%. For the same compound, the “Absolute reduction in damage (difference)” value ([2]; safener 500 g a.i./ha) was 33% and the “Herbicide damage with compound … (%)” value ([2]; safener 500 g a.i./ha) was 30%.
For `CCOC(=O)COc1nc(-c2ccc(Cl)cc2Cl)n(-c2ccc(Cl)cc2Cl)n1` [I.44-32], the “Absolute reduction in herbicide damage (damage without safener minus damage with safener)” value ([1]; safener 125 g a.i./ha) was 53%, the “Herbicide damage with compound of the formula (I)” value ([1]; safener 125 g a.i./ha) was 10% and the “Absolute reduction in herbicide damage (damage without safener minus damage with safener)” value ([1]; safener 500 g a.i./ha) was 56%. For the same compound, the “Herbicide damage with compound of the formula (I)” value ([1]; safener 500 g a.i./ha) was 7%, the “Absolute reduction in damage (difference)” value ([2]; safener 125 g a.i./ha) was 33% and the “Herbicide damage with compound … (%)” value ([2]; safener 125 g a.i./ha) was 27%. The “Absolute reduction in damage (difference)” value ([2]; safener 500 g a.i./ha) was 47% and the “Herbicide damage with compound … (%)” value ([2]; safener 500 g a.i./ha) was 13%.
In the case of `CCOC(=O)COc1nc(-c2ccc(Cl)cc2Cl)n(-c2ccc(F)cc2F)n1` [I.44-38], the “Absolute reduction in herbicide damage (damage without safener minus damage with safener)” value ([1]; safener 125 g a.i./ha) is reported as 53%, the “Herbicide damage with compound of the formula (I)” value ([1]; safener 125 g a.i./ha) is reported as 10% and the “Absolute reduction in herbicide damage (damage without safener minus damage with safener)” value ([1]; safener 500 g a.i./ha) is reported as 60%. The “Herbicide damage with compound of the formula (I)” value ([1]; safener 500 g a.i./ha) was 3%, the “Absolute reduction in damage (difference)” value ([2]; safener 125 g a.i./ha) was 43% and the “Herbicide damage with compound … (%)” value ([2]; safener 125 g a.i./ha) was 17%. For the same compound, the “Absolute reduction in damage (difference)” value ([2]; safener 500 g a.i./ha) was 50% and the “Herbicide damage with compound … (%)” value ([2]; safener 500 g a.i./ha) was 10%.
`CCOC(=O)COc1nc(-c2ccc(Cl)cc2Cl)n(-c2ccc(Cl)cc2F)n1` [I.44-49] was tested, and the “Absolute reduction in herbicide damage (damage without safener minus damage with safener)” value ([1]; safener 125 g a.i./ha) was 43%, the “Herbicide damage with compound of the formula (I)” value ([1]; safener 125 g a.i./ha) was 10% and the “Absolute reduction in herbicide damage (damage without safener minus damage with safener)” value ([1]; safener 500 g a.i./ha) was 46%. The “Herbicide damage with compound of the formula (I)” value ([1]; safener 500 g a.i./ha) was 7%, the “Absolute reduction in damage (difference)” value ([2]; safener 125 g a.i./ha) was 30% and the “Herbicide damage with compound … (%)” value ([2]; safener 125 g a.i./ha) was 30%.
